Reference: patent US9241936B2, “Use of rupatadine in the manufacture of pharmaceutical composition for treating chronic obstructive pulmonary disease” (BEIJING WEIFENG YIMIN BIO-TECHNOLOGY LIMITED COMPANY, priority 2012, dated 2016)
Entries after “also recorded” stand apart in the source; their conditions may differ. Read-outs that look alike come from different tables or passages of the source.

Assays:
[1] = test system: histamine or PAF; details: cited from earlier work; for inhibition of blister: dogs, blister by subcutaneous histamine or PAF, rupatadine 0.3-10 mg/kg, oral administration
[2] = test system: macaque; details: 10 mg/Kg; cited from earlier work
[3] = test system: smoking-induced COPD mice; experiment: amount of inflammatory cytokines in bronchoalveolar lavage fluid of smoking-induced COPD mice (ELISA); assay type: in vivo, C57BL/6 mice
Method: Main agents and animals for experiments: Cigarettes used in the experiment, type 3R4F, were purchased from Tobacco Research Center, University of Kentucky, USA. C57BL/6 mice on level SPF used in the experiment (male, aged 6-8 weeks, 16-18 g) were purchased from Institute of Animal, Chinese academy of medical sciences. […] C57BL/6 mice were put in a smoke box and 5 cigarettes were inhaled without filter tip each time. The ratio of smoke to air was 1:6, and the whole flow rate of gas was 150 ml/min. Smoking experiment was conducted 4 times a day, 30 minutes for each time and last for 24 weeks. Therapy: grouping and feeding animal models with medicaments. The groups were as table 1: [table] The mice were dissected at neck and the […] exposed for intubation. […] The lavage solution was recycled and centrifuged at 1500 r for 10 minutes at 4° C. The supernate was recycled and kept at -20° C. for the test. 100 μl supernate was taken to conduct ELISA examination, and commercial available ELISA kit was used to test the amount of inflammatory cytokines. It can be seen from FIG. 2, compared with the sham-operation group, the content of IL-2 (FIG. 2A), IL-4 (FIG. 2C), IL-17 (FIG. 2D) increased remarkably in lungs of COPD mice.

[4] = test system: mouse; details: 1000 mg/Kg; cited from earlier work
[5] = test system: PAF; details: read-out: IC50 of platelet aggregation induced by PAF, cited from earlier work
[6] = test system: patients suffering seasonal or perennial allergic rhinitis; details: cited from earlier work
[7] = test system: PAF; details: whole blood of dogs; read-out: IC50 of platelet aggregation induced by PAF; cited from earlier work
[8] = test system: smoking-induced COPD mice; experiment: amount of inflammatory cells in bronchoalveolar lavage fluid of smoking-induced COPD mice; assay type: in vivo, C57BL/6 mice
From the text: Main agents and animals for experiments: Cigarettes used in the experiment, type 3R4F, were purchased from Tobacco Research Center, University of Kentucky, USA. C57BL/6 mice on level SPF used in the experiment (male, aged 6-8 weeks, 16-18 g) were purchased from Institute of Animal, Chinese academy of medical sciences.
Preparation of COPD animal model: C57BL/6 mice were put in a smoke box and 5 cigarettes were inhaled without filter tip each time. The ratio of smoke to air was 1:6, and the whole flow rate of gas was 150 ml/min. Smoking experiment was conducted 4 times a day, 30 minutes for each time and last for 24 weeks.
Therapy: grouping and feeding animal models with medicaments. The groups were as table 1:
The mice were dissected at neck and the weasand was exposed for intubation. The lavage amount of PBS was 0.8 ml and the lavage was conducted 3-5 times. The lavage solution was recycled and centrifuged at 1500 r for 10 minutes at 4° C. The supernate was recycled and kept at −20° C. for the test of cytokines.
Cells were reselected and precipitated by 1 ml 1% BSA in PBS. 10 μl resuspension solution was taken for calculating the amount of cells and the hematology analyzer was used for analysis. It can be seen from FIG. 1, compared with the sham-operation group, the total number of hemameba (FIG. 1A), monocyte (FIG. 1B), neutrophile granulocyte (FIG. 1C), lymphocyte (FIG. 1D), basophil (FIG. 1E), and eosinophils (FIG. 1F) in bronchoalveolar lavage fluid of smoking-induced COPD mice increased extremely remarkably.

[9] = test system: mastocytes; details: cited from earlier work
[10] = test system: smoking-induced COPD mice; experiment: pathological evaluation (HE staining) of lung tissue of smoking-induced COPD mice; assay type: in vivo, C57BL/6 mice; details: 6 mg/kg i.g. once a day for 4 weeks
Method: Main agents and animals for experiments: Cigarettes used in the experiment, type 3R4F, were purchased from Tobacco Research Center, University of Kentucky, USA. C57BL/6 mice on level SPF used in the experiment (male, aged 6-8 weeks, 16-18 g) were purchased from Institute of Animal, Chinese academy of medical sciences. […] C57BL/6 mice were put in a smoke box and 5 cigarettes were inhaled without filter tip each time. The ratio of smoke to air was 1:6, and the whole flow rate of gas was 150 ml/min. Smoking experiment was conducted 4 times a day, 30 minutes for each time and last for 24 weeks. Therapy: grouping and feeding animal models with medicaments. The groups were as table 1: [table] HE staining method is also named Hematoxylin-Eosin staining method. Hematoxylin dye liquor is alkaline, and mainly colors intranuclear chromatin and intracytoplasmic ribosome into bluish violet. Eosin is acidic dye, and mainly colors the components in cytoplasm and extracellular matrix. The lung tissues on the right lower lobe was cut, fixed by 4 wt % paraformaldehyde and then embedded by paraffin. The largest cross-section of the paraffin embedding lung tissue was stained by HE staining method, and the result was shown in FIG. 3.

[11] = test system: eosinophil; details: cited from earlier work
[12] = cited from earlier work
[13] = test system: histamine or PAF; details: cited from earlier work
[14] = test system: rats, Guinea pigs and dogs; details: cited from earlier work
[15] = test system: pulmonary fibrosis induced by Bleomycin of mammals; details: cited from earlier work
[16] = test system: histamine H1 receptors; details: cited from earlier work
[17] = test system: TLR4 mutant C3H/HeJ mice with emphysema; experiment: pathological evaluation (HE staining) of mice with emphysema induced by TLR4 mutant; assay type: in vivo; details: i.g. once a day for 4 weeks
From the text: Animals for experiment: C3H/HeN wild type mice on SPF level were purchased from Beijing Vitalriver Experimental Animals Limited Company. TLR4 mutant C3H/HeJ mice were purchased from Institute of model animals, Nanjing University.
Method: Fed the SPF mice and the TLR4 mutant mice in experimental animal center of Institute of pharmaceutics research, Chinese academy of medical sciences. Provide free diet under constant temperature and humidity. The mice were killed until they were 3 months old.
Therapy: Grouping and feeding animal models with medicaments.
HE staining method is also named Hematoxylin-Eosin staining Hematoxylin dye liquor is alkaline, and mainly colors intranuclear chromatin and intracytoplasmic ribosome into bluish violet; Eosin is acidic dye, and mainly colors the components in cytoplasm and extracellular matrix.
The lung tissues on the right lower lobe was cut, fixed by 4 wt % paraformaldehyde and then embedded by paraffin. The largest cross-section of the paraffin embedding the lung tissue was stained by HE staining method, and the result was shown in FIG. 4.

[18] = biological target: histamine H1 receptors (Cavia porcellus, UniProt P31389); details: cited from earlier work
[19] = 6 mg/Kg rupatadine treated group
[20] = bronchoalveolar lavage fluid, ELISA, 6 mg/kg i.g. once a day for 4 weeks after modeling
[21] = bronchoalveolar lavage fluid, 6 mg/kg i.g. once a day for 4 weeks after modeling

histamine H1 receptors (Cavia porcellus, UniProt P31389), sequence (P31389 whole entry): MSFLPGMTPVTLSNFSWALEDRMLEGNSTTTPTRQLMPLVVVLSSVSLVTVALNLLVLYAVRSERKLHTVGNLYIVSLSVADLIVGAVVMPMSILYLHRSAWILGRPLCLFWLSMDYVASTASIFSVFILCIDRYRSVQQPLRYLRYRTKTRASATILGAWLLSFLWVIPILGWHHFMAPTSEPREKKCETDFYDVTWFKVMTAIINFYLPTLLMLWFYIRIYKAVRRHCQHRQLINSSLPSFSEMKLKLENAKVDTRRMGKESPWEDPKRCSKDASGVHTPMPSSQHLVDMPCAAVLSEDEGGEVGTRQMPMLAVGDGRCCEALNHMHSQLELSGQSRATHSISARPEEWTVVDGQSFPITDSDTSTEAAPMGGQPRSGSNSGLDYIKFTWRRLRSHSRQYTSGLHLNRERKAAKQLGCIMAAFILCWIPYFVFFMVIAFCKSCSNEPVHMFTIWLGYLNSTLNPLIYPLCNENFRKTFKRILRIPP

O=C(O)COCCN1CCN(C(c2ccccc2)c2ccc(Cl)cc2)CC1 (stereo not shown) [cetirizine]
inhibition of blister [1]: can only inhibit the blister induced by histamine

CCOC(=O)N1CCC(=C2c3ccc(Cl)cc3CCc3cccnc32)CC1 [loratadine]
inhibition of blister [1]: can only inhibit the blister induced by histamine

Cc1cncc(CN2CCC(=C3c4ccc(Cl)cc4CCc4cccnc43)CC2)c1 [rupatadine, Rupatadine]
period of QTC and QRS [2]: would not be extended | content of IFN-γ [3, 19]: did not affect the content of IFN-γ | content of various inflammatory cytokines in lungs of COPD mice [3, 19]: could reduce the content of various inflammatory cytokines | IFN-γ [3, 20]: 26.28 pg/mL | IL-2 [3, 20]: 6.71 pg/mL | IL-4 [3, 20]: 6.54 pg/mL | IL-17 [3, 20]: 35.53 pg/mL | period of QTC and QRS [4]: would not be extended | IC50 ([5]; platelet rich plasma (of rabbits)): 2900 nM | IC50 [5]: 200 nM | alleviation of symptoms relative to placebo ([6]; 2.5 mg, 5 mg, 10 mg, 20 mg per day, two weeks): can alleviate the symptoms more effectively than placebo | effects compared with loratadine ([6]; 10 mg or 20 mg per day rupatadine vs 10 mg per day loratadine, two weeks, seasonal allergic rhinitis): better effects than intaking 10 mg per day loratadine | side effects on central nervous system ([6]; 10 mg per day, compared with cetirizine): little side effects on central nervous system | therapeutic effects compared with ebastine ([6]; 10 mg rupatadine vs 10 mg ebastine daily for 2 weeks, seasonal allergic rhinitis): better therapeutic effects than ebastine | alleviation of symptoms of seasonal allergic rhinitis compared with loratadine and ebastine ([6]; same dosage): can alleviate the symptoms of seasonal allergic rhinitis more than loratadine and ebastine | alleviation of nasal and optical symptoms relative to placebo ([6]; seasonal allergic rhinitis patients, 10 mg and 20 mg per day, two weeks): much more alleviated | IC50 [7]: 290 nM | amount of various inflammatory cells in bronchoalveolar lavage fluid compared to the model group ([8]; 6 mg/kg rupatadine treated group): could remarkably reduce the amount of various inflammatory cells | Basophil [8, 21]: 24.816 * 10^4 number/mL | Eosinophils [8, 21]: 34.692 * 10^4 number/mL | Lymphocyte [8, 21]: 32.694 * 10^5 number/mL | Monocyte [8, 21]: 49.504 * 10^5 number/mL | Neutrophile granulocyte [8, 21]: 33.864 * 10^5 number/mL | total hemameba [8, 21]: 13.69 * 10^6 number/mL | inhibition of degranulation of mastocytes [9]: can inhibit | lung tissue pathology, structure of alveoli (HE staining) [10]: could effectively recover normal structure of alveoli | inhibition of chemotaxis of eosinophil [11]: can inhibit | time for blood concentration to reach the peak ([12]; after intaking tablet): 1 h | time for blood concentration to reach the peak ([12]; after intaking the capsule): 1.5 h | half-life period ([12]; as stated in b6): 5.9 h | half-life period ([12]; oral administration): 12 h | inhibition of conjunctivitis ([13]; Guinea pig, induced by histamine or PAF): can inhibit conjunctivitis induced by histamine or PAF | therapy effect of eye drops, times better than loratadine ([13]; applied to eye drops, versus loratadine): 10 times | arrhythmia [14]: nor would it lead to arrhythmia | duration of effect ([1]; after intake of rupatadine): 24 h | time of best potency after intake ([1]; after intake of rupatadine): 4 h | inhibition of blister [1]: can effectively inhibit blister | effect on pulmonary fibrosis induced by Bleomycin ([15]; in vivo): can convert the pulmonary fibrosis induced by Bleomycin | lethal rate caused by pulmonary fibrosis induced by Bleomycin ([15]; mammals): declining the lethal rate | affinity to histamine H1 receptors [16]: good affinity | selectivity to peripheral nervous receptors H1 [16]: highly selective | lung tissue pathology, emphysema / structure of alveoli (HE staining) [17]: could effectively recover normal structure of alveoli | anti-histamine activity compared with other medicaments ([18]; in vitro): stronger anti-histamine activity than terfenadine, loratadine, cetirizine, hydroxyzine, diphenhydramine; also recorded: the same as desloratadine | IC50 ([18]; read-out: anti-histamine activity IC50, ileum of Guinea pig in vitro): 3.5 nM | anti-histamine activity, times stronger than loratadine ([18]; versus loratadine): 80 times | anti-histamine activity, times stronger than other anti-histamine medicaments ([18]; versus other anti-histamine medicaments): 100 times

IL-17A: IL-17A used in positive control group, purchased from R&D Company
lung tissue pathology, emphysema / structure of alveoli (HE staining) [17]: could effectively inhibit the further development of emphysema in mice
